The target of one series is β-galactosidase (Escherichia coli, UniProt P00722). Description: Conversion of Imiquimod-β-galactopyranoside (6) to Imiquimod by exogenous β-galactosidase, LC-MS/MS. Type of series: biochemical, E. coli. As for the experimental part:
For LC-MS/MS experiments, mobile phase A consisted of 0.05% formic acid and 0.2% acetic acid in water, and mobile phase B comprised 90% acetonitrile, 9.9% water, and 0.1% formic acid. Using a flow rate of 400 μL/min, mobile phase B 5% isocratic for 0.5 min, before gradient to 95% B over 2.2 min, followed by 95% isocratic for 0.1 min. The total chromatographic assay time (including time to equilibrate for the next run) was 4.0 min per sample. Optimized mass spectrometer parameters were as follows: collision gas, 20 psig; curtain gas, 20 psig; ion source gas 1, 60 psig; ion source gas 2, 40 psig; ion spray voltage, 5500 V; desolvation temperature, 600° C.; declustering potential, 70 V; entrance potential, 10 V; collision energy, 50 V; collision cell exit potential, 10 V. The substrate was detected using multiple reaction monitoring mode by monitoring the m/z fragmentation from 597.8 to 241.2 Da for (6) and the Imiquimod product was monitored for 241.2 to 185.1 Da fragmentation.
To confirm the chemical identity of Imiquimod liberated by β-gal-mediated conversion of (6), an end-point assay was performed using 1 U of β-gal in 200 μL of 10 μm (6) incubated for 16 h (37° C., 5% CO2). To stop the reaction, 50 μL AO Quench Internal Standard (20 μg/mL 2-methyl-4(3H)-quinazolinone in 1 m formic acid) was added to the reaction. This aliquot was compared to a 200 μL sample of 10 μm (6) without β-gal enzyme.
To determine the conversion of Imiquimod-β-Galactopyranoside (6) to Imiquimod in the presence of β-gal over time for exogenous experiments, aliquots (200 μL) of (6) at a concentration of 5 μm in DPBS were incubated with β-gal (1 U, 37° C., 5% CO2). To stop the reaction at the specified time points (0, 1, 2 min), 50 μL AO Quench Internal Standard (20 μg/mL 2-methyl-4(3H)-quinazolinone in 1 m formic acid) was added to each individual reaction. Depletion of (6) was measured by LC-MS/MS for each time point. […] Similar to above, aliquots of (6) for various time points (0, 0.25, 0.5, 1, 2, 3 h) were tested for conversion to immunostimulant by exogenous β-galactosidase.
β-galactosidase from E. coli was diluted with sterile Dulbecco's Phosphate Buffer Saline (DPBS) to an initial concentration of 5,000 U/mL. Aliquots of this stock were diluted with additional DPBS to a concentration of 500 U/mL and 5 mU/mL. Because of the E. coli source for β-galactosidase, samples were filtered with a sterile 0.2 μm syringe filter to guard against potential residual bacteria. Absence of bacteria was confirmed prior to use; filtered samples were plated on an agar plate and incubated for 3 days (37° C., 5% CO2). No bacterial growth was observed from the filtered enzyme.

Series [1] has as its system AT3B-1 prostate cancer cell line (overexpresses P-glycoprotein 1). Put plainly: AT3B-1 cells treated with pro-immunostimulant, absorbance at 420 nm. In kind it is cell-based, rat. The following applies: 10 mM dose, 2−200×10^4 cells/well, 72 h. As for the experimental part: To evaluate the disclosed compounds for their effect against multidrug-resistant cells and possible pathogen infection, compound 6 was exposed to a multidrug-resistant AT3B-1 prostate cancer cell line that is known to overexpress P-glycoprotein 1 (P-gp). AT3B-1 cells were plated in an optically clear bottomed 96-well plate at a range of densities (2−200×10^4 cells/well) in 180 μL of complete cell media. Each cell density was tested in triplicate with and without a 10 mM dose of compound 6. For wells with compound 6, 20 μL of a 100 mM stock solution of compound 6 in DMSO was used. As a control experiment, compound 6 was converted by exogenous α-Mannosidase (0.1 U/mL) in triplicate. The plate was incubated (37° C., 5% CO2) for 72 h before measuring the absorbance at 420 nm.
The AT3B-1 cell line (ATCC CRL-2375, rat prostate epithelial malignant carcinoma) were grown in complete culture media composed of Roswell Park Memorial Institute (RPMI) 1640 medium with 4.5 g/L glucose, 2 mM L-glutamine, 10,000 U/mL penstrep, 10 mM HEPES and supplemented with 10% HI-FBS and 1 μM doxorubicin. Media was changed every 3-4 days omitting the doxorubicin, and cells were passaged once per week. Passaging involved changing media, counting, and seeding 3×10^5 cells in 35 mL of new complete media in a new T-175 culture flask.

The test system of a further series is RAW-Blue cells. Description: RAW-Blue colorimetric assay (NF-κB transcription). In kind it is cell-based. Here is the method:
Measurement of RAW-Blue cell activation was performed similarly to manufacturer instructions. For the NF-κB assay, 1×10^5 RAW-Blue cells were seeded in an optically clear bottomed 96-well plate in 180 μL of complete assay media (identical to B16 media) at a density of 1×10^5 cells/well. For co-culture experiments with RAW-Blue and B16 or β-galactosidase-enriched B16 cells, RAW-Blue cells were seeded at a density of 1×10^5 cells/well and were allowed to adhere for 4 h before the addition of the B16 cells, which were seeded at a density of 1×10^5 cells/well. For co-culture experiments with RAW-Blue and β-galactosidase-enriched B16 cells, RAW-Blue cells were seeded at a density of 1×10^5 cells/well and were allowed to adhere for 4 h before the addition off β-galactosidase-enriched B16 cells, which were seeded at a density of 1×10^5 cells/well.
For experiments with β-gal, a stock solution (500 U/mL, where 1 U=1 μmol/min) was used. A final enzymatic activity of 1 U/well was achieved by addition of 2 μL of the 500 U/mL stock solution to each well. Imiquimod or (6) were prepared as 1.15 and 1.49 mg/mL stock solutions, respectively, in DMSO, and were added to the appropriate wells to achieve the specified final concentrations in each experiment ranging from 0.1 to 10 μM. […] The PNPP assays were incubated for 3 h (37° C., 5% CO2), and the absorbance was measured at 405 nm. […]

The results in this text go back to patent US11117918B2, “Enzyme-directed immunostimulant and uses thereof” (Washington State University, priority 2016, dated 2021).

Sequence of β-galactosidase (P00722 2-1024): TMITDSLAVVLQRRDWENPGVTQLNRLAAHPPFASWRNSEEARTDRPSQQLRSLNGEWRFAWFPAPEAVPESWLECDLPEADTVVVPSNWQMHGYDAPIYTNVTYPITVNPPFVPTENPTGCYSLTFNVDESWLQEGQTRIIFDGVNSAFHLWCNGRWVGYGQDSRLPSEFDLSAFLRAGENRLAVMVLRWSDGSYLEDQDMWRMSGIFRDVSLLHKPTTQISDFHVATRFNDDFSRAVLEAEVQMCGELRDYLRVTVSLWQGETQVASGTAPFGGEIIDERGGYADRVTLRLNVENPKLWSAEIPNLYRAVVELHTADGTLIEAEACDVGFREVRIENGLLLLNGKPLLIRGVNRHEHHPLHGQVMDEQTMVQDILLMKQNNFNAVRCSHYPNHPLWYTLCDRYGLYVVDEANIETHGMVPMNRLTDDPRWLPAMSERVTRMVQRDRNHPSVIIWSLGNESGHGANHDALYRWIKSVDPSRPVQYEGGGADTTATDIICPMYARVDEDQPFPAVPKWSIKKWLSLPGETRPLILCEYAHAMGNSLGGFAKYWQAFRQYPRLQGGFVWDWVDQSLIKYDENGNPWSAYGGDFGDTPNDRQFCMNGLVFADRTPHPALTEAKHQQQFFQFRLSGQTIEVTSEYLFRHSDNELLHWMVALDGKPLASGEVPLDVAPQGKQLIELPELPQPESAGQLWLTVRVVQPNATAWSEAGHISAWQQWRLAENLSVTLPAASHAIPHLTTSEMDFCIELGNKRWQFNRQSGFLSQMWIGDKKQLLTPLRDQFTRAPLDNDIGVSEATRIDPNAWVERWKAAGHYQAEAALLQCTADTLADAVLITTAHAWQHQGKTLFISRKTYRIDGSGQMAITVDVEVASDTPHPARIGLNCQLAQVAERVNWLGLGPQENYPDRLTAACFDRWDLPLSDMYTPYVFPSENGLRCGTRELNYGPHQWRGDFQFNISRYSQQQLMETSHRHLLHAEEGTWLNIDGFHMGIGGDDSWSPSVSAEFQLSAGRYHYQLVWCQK

Regarding “4-Imiquimod-2-nitrophenyl-galactopyranoside [compound 6]”, the “depletion of (6)” value on β-galactosidase (5 μm in DPBS, β-gal 1 U, 0, 1, 2 min) was “rapid depletion”. The “stability without β-gal enzyme (no residual Imiquimod observed)” value on β-galactosidase (10 μm (6) without β-gal enzyme) is listed as “stable”. Also, the “conversion to Imiquimod (depletion of (6) and formation of Imiquimod)” value at β-galactosidase (exogenous β-galactosidase 5 mU, over 3 h) is “near quantitative conversion”. Besides, at β-galactosidase (β-galactosidase 1 U, 2 nmol (200 μL of 10 μm), 16 h, 37° C.), the “conversion into Imiquimod” value is “quantitative conversion”. Further, in series [1], the “interaction with P-gp” value was “interacting with P-gp”. Besides, in the series with RAW-Blue cells (co-cultures of β-galactosidase-enriched B16 cells and RAW-Blue cells, relative to unaltered B16 co-cultures or RAW-Blue cells alone), the NF-κB transcription entry is given as “enhanced”. In addition, the RAW-Blue cell activity entry in the series with RAW-Blue cells (compound alone, relative to compound with 1 U β-galactosidase or Imiquimod, 16 h) is recorded as “abrogated”.
